According to US9744212B2, “Galectin-3C combination therapy for human cancer” (Texas Tech University System, priority 2011, dated 2017):

Experiments:
HUVEC [1] = test: Vascular endothelial cell viability assay; type: cell-based, human
Description: FIGS. 4A and 4B are graphs of the data from the vascular endothelial cell viability assay. […] The graphs show mean values and error bars represent 95% C.I. **=ANOVA Tukey's post test p<O.Ol. n.s.=not significant. […] Viability was measured as described for the U266 cells. […] Results obtained from the HUVEC viability studies that were run in triplicate are depicted in FIGS. 4A-B, and are presented as a percentage of control (untreated) cells.
EXAMPLE 3 illustrates Gal-3C inhibits proliferation of MM cells. Cell Proliferation (Viability) Assays. Cell proliferation was assessed with a ViaLight Plus Cell Proliferation and Cytotoxicity BioAssay Kit (Lonza, Walkersville, Md., USA) according to the directions of the manufacturer. In brief, myeloma cells were seeded (8,000 per well) in 50 μL of RPMI-1640 with 10% heat-inactivated FBS (growth medium) in 96-well plates. HUVEC cells were seeded (10,000/well) in 50 μl EGM-2 medium in 96-well plates. Gal-3C (2× concentration) in 50 μL of growth medium was added to triplicate wells and the plate kept at the CO2 incubator at 37° C. for 48 hour. For the ViaLight assay, 50 μL of lysis buffer was added to each well, the plate was incubated for 10 minutes, after which 50 μL of cell lysate from each well was transferred to a solid white Lumitrac-200 plate and 50 μL of reconstituted AMR Plus was added. Luminescence was measured with a 1-s integrated setting in a Berthold luminometer after 2 minutes. With Alamar Blue, 10 μL of reagent was added per well and the plate kept in the CO2 incubator for 4 hours. Fluorescence intensity was measured at 590-nm on a Polarstar Galaxy (BMG Labtech, Cary, N.C.) microplate reader. The blank (growth media with 10 μl Alamar Blue) was subtracted from the raw fluorescence to obtain adjusted fluorescence readings. Triplicate data points were analyzed and the data shown are representative of 3 or more studies.

VEGF = test: ELISA of VEGF in U266 cell-conditioned medium; type: cell-based, human; conditions: 48-hour culture with 10 μg/mL Gal-3C, 5 nM Bor or both
Description: (§1) ELISA of VEGF and bFGF Levels. The levels of VEGF and bFGF were measured by direct ELISA as follows. Flat-bottom 96-well polycarbonate plates were coated at 4° C. with 50 μL/well cell culture supernatants diluted 1:25 in carbonate coating buffer (0.1 M NaHCO3, […]) at 4° C. overnight. Standard curves were obtained with purified recombinant human VEGF and bFGF (both from R&D Systems) serially diluted in coating buffer (10-fold serial dilutions from 1,000 to 0 ng/mL). After removing diluted supernatants or standards, and blocking with PBS supplemented with 1% W/V BSA for 1 hour at room temperature, plates were incubated for 1 hour at room temperature with mouse anti-human VEGF or rabbit anti-human bFGF primary antibodies (2 μg/mL in PBS, 50 μL/well Abeam, Mass., USA). Then, plates were washed twice with PBS with 0.025% V/V Tween-20 (300 μL/well) and incubated at room temperature with anti-mouse or anti-rabbit HRP-labeled secondary antibodies (0.2 μg/mL in PBS, 50 μL/well Abeam, Mass., USA) for 1 hour. The plates were washed thrice with PBS containing 0.025% V/V Tween-20 (300 μL/well), the TMB colorimetric substrate (Thermo Fisher Scientific, Waltham, Mass., USA) was added, and after 5 minutes the absorbance was measured (0.1 s) at 450 nm on a Victor 2 multimodal microplate reader (PerkinElmer, Billerica, Mass., USA). All samples were run in triplicates. […]

HUVEC [2] = test: HUVEC tubule formation assay on Matrigel with U266 conditioned media; type: cell-based, human; conditions: 20% V/V conditioned medium of U266 treated 48 h with 10 μg/mL Gal-3C, 5 nM Bor or both; 16-hour incubation
Description: HUVEC Tubule Formation Assay. A tubule formation assay was performed in vitro as described (86) to measure angiogenesis. Briefly, growth factor-reduced Matrigel (Becton Dickinson) was allowed to polymerize in the presence of 30 ng/mL recombinant basic fibroblastic growth factor (bFGF; R&D Systems) for 1 hour at 37° C.
FIG. 5 is an image of the results from the In vitro tubule formation assay having 6 regions. Serum-starved HUVEC were allowed to form tubules on a […]™ surface in the presence of VEGF (positive control), EMB-2 medium alone (negative control), or EBM-2 supplemented with 20% V/V U266 conditioned media (c.m.). […] To evaluate the effect of different treatments on the ability of U266 cells to induce angiogenesis, a […]™-based tubule formation assay was performed in the presence of U266 conditioned media as described for the chemotaxis assay. Serum-starved (5×103) HUVEC were seeded on the […]™ surface in 200-μL EBM-2 medium supplemented with 20% V/V conditioned medium. Pictures were taken after 16-hour incubation in 5% CO2 at 37° C. The assay was run in triplicate and representative images are depicted in FIG. 5. As a positive control, EBM-2 medium supplemented with 20 ng/mL VEGF was used.

bFGF = test: ELISA of bFGF in U266 cell-conditioned medium; type: cell-based, human; conditions: 48-hour culture with 10 μg/mL Gal-3C, 5 nM Bor or both
Description: as §1

AKT/IKK pathway = test: Western blot of proteins in the NF-κB AKT/IKK pathway; type: cell-based; conditions: U266 and primary human MM cells; Gal-3C 10 μg/ml
Excerpt: EXAMPLE 4 indicates Gal-3C impairs NF-kB activation induced by Bonin U266 cells. Recently, it has been shown that the mechanism of action of Boris more complex than originally thought and can be differ depending on the cell type. […] This effect potentially reduces the therapeutic effect of Bonin MM, because NF-kB activation in plasma cells is associated with anti-apoptotic pathways (91). […] Comparison of NFkB expression by Western blot. […] Equal amounts of lysates of human primary MM and U266 cells and media were fractionated by SDS-PAGE and transferred to nitrocellulose membranes. Primary antibodies were visualized with HRP-coupled goat anti-rabbit or anti-mouse IgGs using an ATK/IKK kit (Cell Signaling Technology, Danvers, Mass.).
Upon IKK-mediated phosphorylation, IKBα dissociates from the NF-kB complex (p50 and p65 proteins). Free NF-kB is then phosphorylated on serine 529 of the p65 subunit and enters the nucleus where it regulates gene transcription.

[3] = system: NF-kB (serine 529 phosphorylated p65 subunit); test: Quantification of NF-kappaB activation by flow cytometry in U266 cells; type: cell-based, human; conditions: 48 hours
Description: Quantification of NF-kappaB Activation by Flow Cytometry. For measurement of NF-kB activation, 200×10^3 cells were fixed with 2% PFA in ice-cold PBS for 30 minutes. After removal of PFA, cells were permeabilized with 0.3% saponin in PBS on ice for 15 minutes, then washed and resuspended in 50 μL PBS supplemented with 1% BSA. PE-labeled anti-phosphorylated serine 529 p65 antibody (BD Biosciences, San Jose, Calif., USA) or isotype control (final dilution, 1:20) and allowed to incubate on ice in the dark for 30 minutes. Before flow-cytometric analysis cells were washed 3 times in 1-mL cold PBS with 1% BSA.
FIG. 8A is a dot-plot of NF-kB activation in U266 cells. After 48 hours in the presence of indicated treatments, the levels of active NF-KB (serine 529 phosphorylated p65 subunit) were evaluated in U266 cells by flow cytometry.

CC(C)C[C@H](NC(=O)[C@H](Cc1ccccc1)NC(=O)c1cnccn1)B(O)O [Bor, bortezomib, reference compound]
effect on HUVEC viability (HUVEC [1]; Bor at the concentration used in HUVEC assays, combined with different concentrations of Gal-3C): did not display any effect
effect on HUVEC viability (HUVEC [1]; at the concentration used in the chemotaxis and angiogenesis assays (Gal-3C 2 μg/ml, Bor 1 nM), 48 h): had an effect only at a concentration 5-fold higher
effect on HUVEC viability (HUVEC [1]; at the highest concentrations, 48 h): dramatic inhibition
VEGF levels in U266 conditioned medium (VEGF): significantly reduced
potential of U266 cells for induction of angiogenesis (tubule formation) (HUVEC [2]): almost completely impaired
bFGF levels in U266 conditioned medium (bFGF): significantly reduced
P-p65, P-Akt, P-IKKβ and P-IKKα (activation of the AKT/IKK pathway) (AKT/IKK pathway): increased
NF-kB activation (phosphorylated active form) [3]: activated NF-kB incrementally
